Data on two molecules can be found in US9242937B2, “Pharmaceutically active disubstituted pyridine derivatives” (Bayer Intellectual Property GmbH, priority 2011, dated 2016).

The IC50 is the midpoint of a concentration-inhibition curve.

Common to all, as to assay type: biochemical
One assay has as its target T1, CDK6/CyclinD3 (Homo sapiens, UniProt Q00534).
T1 construct: purchased Carna
Nature of the assay: Lance Ultra KinaSelect Assay, CDK6. Particulars: ULight MBP substrate, ATP 55 μM; read-out: CDK6 LANCE assay (activity range), IC50. As to the method: (§1) This protocol describes how the Lance Ultra KinaSelect Assay was performed to determine half maximal inhibitory concentration (IC50) of compounds of general formula (I) and CDK/Cyclin complexes. The principle behind this enzymatic assay is based upon the phosphorylation of the ULight-Peptide Substrat. It is detected by using a specific EU-labeled anti-phospho peptide antibody. The binding of the Eu-labeled anti-phospho peptide antibody to the phosphorylated ULight labeled peptide gives rise to a FRET-signal. Binding of an inhibitor to the kinase prevents phosphorylation of the ULight-MBP Substrat, resulting in a loss of FRET.
(§2) The compounds of general formula (I) summarized in Table 5 were diluted from a 10 mM DMSO stock solution 1:10 in a total volume of 15 μL DMSO. […] Positive and negative controls were calculated from at least 8 different sample wells. […] Before reading, 10 μL the detection buffer (Lance Detection Buffer 1×; EDTA: […]; Eu-Anti-P-MBP: see Table 3) was added. The FRET signal was measured at 340 nm excitation, 665 nm and 615 nm emission (for the kinase tracer and LanthaScreen Eu-AB, respectively) with an Envision spectrophotometer (Perkin Elmer, Waltham, Mass., USA) with 50 μs delay and 300 μs integration time. IC50 values were determined from the sigmoidal dose response curves with the software Quattro Workflow (Quattro GmbH, Munich, Germany).

The target of a further assay is T2, CDK4/CyclinD1 (Homo sapiens, UniProt P11802).
T2 construct: purchased Invitrogen
Nature of the assay: Lance Ultra KinaSelect Assay, CDK4. The settings on record: ULight MBP substrate, ATP 90 μM; read-out: CDK4 LANCE assay (activity range), IC50. Here is the method: as §1, §2
Background: Time-resolved FRET reads energy transfer from a long-lived donor to a nearby acceptor.

Another assay addresses T3, CDK1/CyclinB1 (Homo sapiens, UniProt P06493).
T3 construct: purchased Carna
Nature of the assay: Lance Ultra KinaSelect Assay, CDK1. The settings on record: ULight MBP substrate, ATP 20 μM; read-out: CDK1 LANCE assay (activity range), IC50. As to the method:
as §1, §2

T2 sequence (P11802 whole entry): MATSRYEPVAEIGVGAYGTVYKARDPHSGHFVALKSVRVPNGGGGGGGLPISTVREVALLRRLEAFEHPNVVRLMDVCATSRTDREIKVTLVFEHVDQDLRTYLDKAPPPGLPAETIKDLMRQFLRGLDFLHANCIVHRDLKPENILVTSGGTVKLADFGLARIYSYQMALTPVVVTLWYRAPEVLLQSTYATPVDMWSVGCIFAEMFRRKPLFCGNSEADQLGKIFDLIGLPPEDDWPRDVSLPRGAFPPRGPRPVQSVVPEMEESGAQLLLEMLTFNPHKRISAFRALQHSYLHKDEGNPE
T2 sequence (P24385 whole entry partner): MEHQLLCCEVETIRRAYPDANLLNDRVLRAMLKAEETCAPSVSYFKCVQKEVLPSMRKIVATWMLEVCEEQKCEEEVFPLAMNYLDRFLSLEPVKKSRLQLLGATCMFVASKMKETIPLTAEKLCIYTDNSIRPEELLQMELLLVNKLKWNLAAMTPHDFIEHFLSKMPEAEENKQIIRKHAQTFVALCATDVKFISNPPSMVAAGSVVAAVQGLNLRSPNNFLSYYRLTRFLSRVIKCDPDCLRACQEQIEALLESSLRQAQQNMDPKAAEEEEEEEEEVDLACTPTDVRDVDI
T3 sequence (P06493 whole entry): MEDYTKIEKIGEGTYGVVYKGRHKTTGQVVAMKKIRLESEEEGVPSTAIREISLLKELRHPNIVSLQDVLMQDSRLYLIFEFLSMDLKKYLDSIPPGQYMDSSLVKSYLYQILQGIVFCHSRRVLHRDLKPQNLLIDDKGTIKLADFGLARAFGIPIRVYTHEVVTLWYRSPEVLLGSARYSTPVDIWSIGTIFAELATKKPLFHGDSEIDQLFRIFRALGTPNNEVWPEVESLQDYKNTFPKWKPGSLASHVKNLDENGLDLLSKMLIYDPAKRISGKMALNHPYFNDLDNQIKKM
T3 sequence (P14635 whole entry partner): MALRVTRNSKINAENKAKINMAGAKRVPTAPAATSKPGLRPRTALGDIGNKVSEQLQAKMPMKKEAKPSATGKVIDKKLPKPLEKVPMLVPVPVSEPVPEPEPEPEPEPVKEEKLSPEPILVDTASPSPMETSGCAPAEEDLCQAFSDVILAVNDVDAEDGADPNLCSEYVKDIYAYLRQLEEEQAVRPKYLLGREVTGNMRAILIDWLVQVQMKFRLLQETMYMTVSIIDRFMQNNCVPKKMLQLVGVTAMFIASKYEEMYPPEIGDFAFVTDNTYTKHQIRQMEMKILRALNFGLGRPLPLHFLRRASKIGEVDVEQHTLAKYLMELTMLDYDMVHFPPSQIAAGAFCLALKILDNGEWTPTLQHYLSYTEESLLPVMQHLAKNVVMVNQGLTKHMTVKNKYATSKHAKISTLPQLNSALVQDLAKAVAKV
T1 sequence (Q00534 whole entry): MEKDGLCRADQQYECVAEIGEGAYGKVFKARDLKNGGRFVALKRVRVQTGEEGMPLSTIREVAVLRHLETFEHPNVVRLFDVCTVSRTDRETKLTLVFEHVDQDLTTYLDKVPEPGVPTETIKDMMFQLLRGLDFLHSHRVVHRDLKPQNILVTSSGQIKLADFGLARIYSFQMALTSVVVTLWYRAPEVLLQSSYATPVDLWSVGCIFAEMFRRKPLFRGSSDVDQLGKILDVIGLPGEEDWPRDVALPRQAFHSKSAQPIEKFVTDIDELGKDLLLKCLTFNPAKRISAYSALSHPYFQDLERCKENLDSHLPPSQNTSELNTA
T1 sequence (P30281 whole entry partner): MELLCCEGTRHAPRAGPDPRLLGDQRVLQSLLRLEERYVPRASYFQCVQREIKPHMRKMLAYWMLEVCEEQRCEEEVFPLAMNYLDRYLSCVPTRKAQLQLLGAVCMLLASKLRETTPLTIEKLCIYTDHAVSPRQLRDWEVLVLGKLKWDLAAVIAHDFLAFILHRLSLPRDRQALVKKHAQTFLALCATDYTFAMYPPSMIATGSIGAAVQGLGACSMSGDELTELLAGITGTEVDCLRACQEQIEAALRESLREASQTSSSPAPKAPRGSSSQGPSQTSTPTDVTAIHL

Turning to `COc1ccccc1-c1ccnc(Nc2cccc(S(N)(=O)=O)c2)c1` [Compound D1, 3-[(4-(2-Methoxyphenyl)pyridin-2-yl)amino]benzenesulfonamide], the IC50 at CDK6/CyclinD3 was greater than 10 µM; on CDK4/CyclinD1, greater than 10 µM; on CDK1/CyclinB1, 1 to 10 µM.
In the case of `COc1cc(F)ccc1-c1ccnc(Nc2cccc(CS(N)(=O)=O)c2)c1` [Compound G1, [3-((4-(4-Fluoro-2-methoxyphenyl)pyridin-2-yl)amino)phenyl]-methanesulfonamide], the IC50 is greater than 10 µM on CDK6/CyclinD3, 1 to 10 µM on CDK4/CyclinD1 and 1 to 10 µM on CDK1/CyclinB1.
